Consider 48 molecules from patent US9051342B2 (priority 2004, dated 2015).

Structures are written as SMILES. Several values for one entry are separate records, joined by “and”; a condition that tells them apart may be missing. Equal entries are not always repeated. Some results are limits rather than exact numbers.

As usually defined, the melting point is the temperature of the solid-liquid transition. With `O=C(O)c1ccc(-n2cc(-c3ccncc3)cn2)cc1` [Compound 116, 4-(4-Pyridin-4-yl-pyrazol-1-yl)-benzoic acid], the melting point is greater than 350 °C.
In the case of `N#Cc1cccc(-c2ccn(-c3cccc(C(=O)O)c3)n2)c1` [Compound 78, 3-[3-(3-Cyano-phenyl)-pyrazol-1-yl]-benzoic acid], the melting point lay in the range of 164 to 166 °C.
With `O=C(O)c1ccc(-c2ccn(-c3ccccc3F)c2)cc1` [Compound 151, 4-[1-(2-Fluoro-phenyl)-1H-pyrrol-3-yl]-benzoic acid] the figure was 202 to 204 °C; with `O=C(O)c1cccc(-n2cc(-c3ccc4c(c3)OCO4)cn2)c1` [Compound 111, 3-(4-Benzo[1,3]dioxol-5-yl-pyrazol-1-yl)-benzoic acid], 264 to 265 °C; with `CC(C)c1ccc(-c2ccn(-c3cccc(C(=O)O)c3)n2)cc1` [Compound 5, 3-[3-(4-Isopropyl-phenyl)-pyrazol-1-yl]-benzoic acid], 215 to 216 °C.
`CC(C)c1ccc(-n2nc(-c3ccc(C(=O)O)cc3)oc2=O)cc1` [Compound 276, 4-[4-(4-Isopropyl-phenyl)-5-oxo-4,5-dihydro-[1,3,4]oxadiazol-2-yl]-benzoic acid] came in with a melting point of 263 to 267 °C.
In the case of `COc1ccc2c(c1)CCc1cn(-c3ccc(C(=O)O)cc3)nc1-2` [Compound 163, 4-(7-Methoxy-4,5-dihydro-benzo[g]indazol-2-yl)-benzoic acid], the melting point was 279 to 280 °C.
`COc1cccc2c1Cc1cn(-c3cccc(C(=O)O)c3)nc1-2` [Compound 184, 3-(5-Methoxy-4H-indeno[1,2-c]pyrazol-2-yl)-benzoic acid]: the melting point is 277 to 278 °C.
Then `O=C(O)c1cccc(-n2ncc3c2Cc2ccccc2-3)c1` [Compound 136, 3-(8H-Indeno[2,1-c]pyrazol-1-yl)-benzoic acid], with 241 to 243 °C; and `O=C(O)c1ccc(-n2cc(-c3cccc4ccccc34)nn2)cc1` [Compound 271, 4-(4-Naphthalen-1-yl-[1,2,3]triazol-1-yl)-benzoic acid], with 265 to 266 °C.
For the molecule `Cc1ccc(-n2cc(-c3ccc(C(=O)O)cc3)cn2)cc1Cl` [Compound 231, 4-[1-(3-Chloro-4-methyl-phenyl)-1H-pyrazol-4-yl]-benzoic acid], the melting point lay within 285 to 288 °C.
Then `O=C(O)c1cccc(-c2cnn(-c3ccc(Cl)c(Cl)c3)c2)c1` [Compound 232, 3-[1-(3,4-Dichloro-phenyl)-1H-pyrazol-4-yl]-benzoic acid], with 135 to 138 °C; and `O=C(O)c1cccc(-n2cc3c(n2)Cc2ccccc2-3)c1` [Compound 146, 3-(8H-Indeno[2,1-c]pyrazol-2-yl)-benzoic acid], with 246 to 248 °C.
`COc1ccccc1-n1ccc(-c2ccc(C(=O)O)cc2)c1` [Compound 193] showed a melting point of 200 to 202 °C.
With `O=C(O)c1cccc(-c2ncn(-c3ccccc3F)n2)c1` [Compound 17, 3-[1-(2-Fluoro-phenyl)-1H-[1,2,4]triazol-3-yl]-benzoic acid] the figure was 239 to 241 °C.
Then `O=C(O)c1cccc(-n2cc(-c3ccccc3F)cn2)c1` [Compound 84, 3-[4-(2-Fluoro-phenyl)-pyrazol-1-yl]-benzoic acid], with 225 to 226 °C; and `O=C(O)c1cccc(-c2ccn(-c3ccc(OCc4ccccc4)cc3)n2)c1` [Compound 176, 3-[1-(4-Benzyloxy-phenyl)-1H-pyrazol-3-yl]-benzoic acid], with 210 to 212 °C; and `CN(C)c1cccc(-n2ccc(-c3cccc(C(=O)O)c3)n2)c1` [Compound 164, 3-[1-(3-Dimethylamino-phenyl)-1H-pyrazol-3-yl]-benzoic acid], with 180 to 183 °C.
On to `O=C(O)c1ccc(-n2cc3c(n2)-c2cccc(OC(F)F)c2CC3)cc1` [Compound 186, 4-(6-Difluoromethoxy-4,5-dihydro-benzo[g]indazol-2-yl)-benzoic acid], for which the melting point lay in the range of 282 to 283 °C.
Then `O=C(O)c1cccc(-c2ncn(-c3ccccc3Br)n2)c1` [Compound 30, 3-[1-(2-Bromo-phenyl)-1H-[1,2,4]triazol-3-yl]-benzoic acid], with 245 to 247 °C; and `O=C(O)c1cccc(-c2ccn(-c3cc(F)ccc3F)c2)c1` [Compound 242, 3-[1-(2,5-Difluoro-phenyl)-1H-pyrrol-3-yl]-benzoic acid], with 193 to 194 °C.
With `O=C(O)c1cccc(-c2ncn(-c3ccccc3)n2)c1` [Compound 37, 3-(1-Phenyl-1H-[1,2,4]triazol-3-yl)-benzoic acid] the figure was 257 to 259 °C; with `O=C(O)c1cccc(-c2ccn(-c3cccc(O)c3)n2)c1` [Compound 75, 3-[1-(3-Hydroxy-phenyl)-1H-pyrazol-3-yl]-benzoic acid], 178 to 190 °C and 178 to 179 °C.
Regarding `Cc1ccc(-c2cn(-c3ccc(C(=O)O)cc3)nn2)cc1` [Compound 201, 4-(4-p-Tolyl-[1,2,3]triazol-1-yl)-benzoic acid], the melting point was in the range of 302 to 303 °C.
Turning to `COc1ccc(-n2ccc(-c3ccc(C(=O)O)cc3)n2)cc1` [Compound 217, 4-[1-(4-Methoxy-phenyl)-1H-pyrazol-3-yl]-benzoic acid], the melting point lay in the range of 252 to 253 °C.
Then `O=C(O)c1cccc(-n2cnc(-c3ccccc3)n2)c1` [Compound 8, 3-(3-Phenyl-[1,2,4]triazol-1-yl)-benzoic acid], with 268 to 271 °C; and `O=C(O)c1ccc(-n2cc(-c3cccc(F)c3)cn2)cc1` [Compound 212, 4-[4-(3-Fluoro-phenyl)-pyrazol-1-yl]-benzoic acid], with 261 to 265 °C; and `CC(C)c1ccc(-c2nn(Cc3ccc(C(=O)O)cc3)c(=O)o2)cc1` [Compound 278, 4-{[5-(4-isopropylphenyl)-2-oxo-1,3,4-oxadiazol-3(2H)-yl]methyl}benzoic acid], with 217 to 219 °C.
With `O=C(O)c1ccc(-c2ccn(-c3ccc(F)c(F)c3)c2)cc1` [Compound 127, 4-[1-(3,4-Difluoro-phenyl)-1H-pyrrol-3-yl]-benzoic acid] the figure was 231 to 233 °C; with `O=C(O)c1cccc(-n2cnc(-c3ccc(O)cc3)n2)c1` [Compound 9, 3-[3-(4-Hydroxy-phenyl)-[1,2,4]triazol-1-yl]-benzoic acid], 307 to 311 °C; with `CC(C)c1ccc(-c2nn(-c3cccc(C(=O)O)c3)c(=O)o2)cc1` [Compound 279], 218 to 220 °C.
Then `COc1ccc(-c2cnn(-c3ccc(C(=O)O)cc3)c2)cc1` [Compound 50, 4-[4-(4-Methoxy-phenyl)-pyrazol-1-yl]-benzoic acid], with 289 to 290 °C.
As to `Cc1cccc(-n2ccc(-c3ccc(C(=O)O)cc3)c2)c1` [Compound 194, 4-(1-m-Tolyl-1H-pyrrol-3-yl)-benzoic acid], the melting point was 212 to 213 °C.
In turn, `O=C(O)c1cccc(-n2cc(-c3cccc(Cl)c3)cn2)c1` [Compound 210, 3-[4-(3-Chloro-phenyl)-pyrazol-1-yl]-benzoic acid] had a melting point of 178 to 180 °C.
With `O=C(O)c1cccc(-n2cc(-c3cccc(Oc4ccccc4)c3)cn2)c1` [Compound 216, 3-[4-(3-Phenoxy-phenyl)-pyrazol-1-yl]-benzoic acid] the figure was 164 to 165 °C; with `O=C(O)c1cccc(-c2ccn(-c3cccnc3)n2)c1` [Compound 260, 3-(1-Pyridin-3-yl-1H-pyrazol-3-yl)-benzoic acid], 235 to 236 °C; with `O=C(O)c1cccc(-c2ccn(-c3ccccc3)n2)c1` [Compound 65, 3-(1-Phenyl-1H-pyrazol-3-yl)-benzoic acid], 202 to 204 °C.
With `O=C(O)c1cccc(-c2ccn(-c3ccc(F)cc3)n2)c1` [Compound 96, 3-[1-(4-Fluoro-phenyl)-1H-pyrazol-3-yl]-benzoic acid] the figure was 245 to 246 °C.
With `O=C(O)c1ccc(-c2ccn(-c3ccc4[nH]ccc4c3)n2)cc1` [Compound 257, 4-[1-(1H-Indol-5-yl)-1H-pyrazol-3-yl]-benzoic acid] the figure was 281 to 282 °C; with `COc1ccc2c(c1)Cc1cn(-c3cccc(C(=O)O)c3)nc1-2` [Compound 139, 3-(6-Methoxy-4H-indeno[1,2-c]pyrazol-2-yl)-benzoic acid], 272 to 273 °C.
Take `COc1ccc2c(c1)-c1cn(-c3cccc(C(=O)O)c3)nc1CC2` [Compound 253, 3-(8-Methoxy-4,5-dihydro-benzo[e]indazol-2-yl)-benzoic acid]: the melting point lay within 239 to 241 °C.
Then `O=C(O)c1ccc(-c2cnn(-c3ccc4c(c3)OCO4)c2)cc1` [Compound 227, 4-(1-Benzo[1,3]dioxol-5-yl-1H-pyrazol-4-yl)-benzoic acid], with 266 to 268 °C; and `CC(C)c1ccc(-n2ccc(-c3cccc(C(=O)O)c3)c2)cc1` [Compound 6, 3-[1-(4-Isopropyl-phenyl)-1H-pyrrol-3-yl]-benzoic acid], with 210 to 215 °C.
The molecule `Cc1ccc(-n2cc(-c3ccc(C(=O)O)cc3)cn2)cc1` [Compound 178, 4-(1-p-Tolyl-1H-pyrazol-4-yl)-benzoic acid] showed a melting point of 280 to 282 °C.
With `COc1ccc2c(c1)-c1nn(-c3ccc(C(=O)O)cc3)cc1C2` [Compound 149, 4-(7-Methoxy-4H-indeno[1,2-c]pyrazol-2-yl)-benzoic acid] the figure was 304 to 306 °C.
Molecule `CC(C)c1ccc(-n2cnc(-c3cccc(C(=O)O)c3)n2)cc1` [Compound 15, 3-[1-(4-Isopropyl-phenyl)-1H-[1,2,4]triazol-3-yl]-benzoic acid] displayed a melting point of 173 to 175 °C.
On to `Cc1ccccc1-n1cnc(-c2cccc(C(=O)O)c2)n1` [Compound 40, 3-(1-o-Tolyl-1H-[1,2,4]triazol-3-yl)-benzoic acid], for which the melting point fell in the range of 209 to 211 °C.
Then `Cc1cccc(-c2cnn(-c3cccc(C(=O)O)c3)c2)c1` [Compound 90, 3-(4-m-Tolyl-pyrazol-1-yl)-benzoic acid], with 181 to 182 °C.
